Reference: ChEMBL document CHEMBL2150993, “Substituted thiazoles VII. Synthesis and antitumor activity of certain 2-(substituted amino)-4-phenyl-1,3-thiazole analogs” (2012)
Active and inactive are the calls of the source. The calls are words filed in the database; no cut-off is given here.

How the values were obtained:
Assay type in all cases: functional
[1] = tested on: CCRF-CEM; assay: Growth inhibition of human CCRF-CEM cells after 48 hrs by cell counting analysis; details: at 10 µM
[2] = tested on: HL-60; assay: Growth inhibition of human HL60 cells after 48 hrs by cell counting analysis; details: at 10 µM
[3] = tested on: K562; assay: Growth inhibition of human K562 cells after 48 hrs by cell counting analysis; details: at 10 µM
[4] = tested on: RPMI-8226; assay: Growth inhibition of human RPMI8226 cells after 48 hrs by cell counting analysis; details: at 10 µM
[5] = tested on: SR; assay: Growth inhibition of human SR cells after 48 hrs by cell counting analysis; details: at 10 µM
[6] = tested on: A549; assay: Growth inhibition of human A549 cells after 48 hrs by cell counting analysis; details: at 10 µM
[7] = tested on: EKVX; assay: Growth inhibition of human EKVX cells after 48 hrs by cell counting analysis; details: at 10 µM
[8] = tested on: HOP-62; assay: Growth inhibition of human HOP62 cells after 48 hrs by cell counting analysis; details: at 10 µM
[9] = tested on: HOP-92; assay: Growth inhibition of human HOP92 cells after 48 hrs by cell counting analysis
[10] = tested on: NCI-H226; assay: Growth inhibition of human NCI-H226 cells after 48 hrs by cell counting analysis; details: at 10 µM
[11] = tested on: NCI-H23; assay: Growth inhibition of human NCI-H23 cells after 48 hrs by cell counting analysis; details: at 10 µM
[12] = Growth inhibition of human NCI-322M cells after 48 hrs by cell counting analysis; details: at 10 µM
[13] = tested on: NCI-H522; assay: Growth inhibition of human NCI-H522 cells after 48 hrs by cell counting analysis; details: at 10 µM
[14] = tested on: HCC 2998; assay: Growth inhibition of human HCC2998 cells after 48 hrs by cell counting analysis; details: at 10 µM
[15] = tested on: HCT-15; assay: Growth inhibition of human HCT15 cells after 48 hrs by cell counting analysis; details: at 10 µM
[16] = tested on: HT-29; assay: Growth inhibition of human HT-29 cells after 48 hrs by cell counting analysis; details: at 10 µM
[17] = tested on: KM12; assay: Growth inhibition of human KM12 cells after 48 hrs by cell counting analysis; details: at 10 µM
[18] = tested on: SW-620; assay: Growth inhibition of human SW620 cells after 48 hrs by cell counting analysis; details: at 10 µM
[19] = tested on: SF-268; assay: Growth inhibition of human SF268 cells after 48 hrs by cell counting analysis; details: at 10 µM
[20] = tested on: SF-295; assay: Growth inhibition of human SF295 cells after 48 hrs by cell counting analysis; details: at 10 µM
[21] = tested on: SF-539; assay: Growth inhibition of human SF539 cells after 48 hrs by cell counting analysis; details: at 10 µM
[22] = tested on: SNB-19; assay: Growth inhibition of human SNB19 cells after 48 hrs by cell counting analysis; details: at 10 µM
[23] = tested on: SNB-75; assay: Growth inhibition of human SNB75 cells after 48 hrs by cell counting analysis; details: at 10 µM
[24] = tested on: U-251; assay: Growth inhibition of human U251 cells after 48 hrs by cell counting analysis; details: at 10 µM
[25] = tested on: LOX IMVI; assay: Growth inhibition of human LOXIMVI cells after 48 hrs by cell counting analysis; details: at 10 µM
[26] = tested on: Malme-3M; assay: Growth inhibition of human MALME-3M cells after 48 hrs by cell counting analysis; details: at 10 µM
[27] = tested on: M14; assay: Growth inhibition of human M14 cells after 48 hrs by cell counting analysis; details: at 10 µM
[28] = tested on: MDA-MB-435; assay: Growth inhibition of human MDA-MB-435 cells after 48 hrs by cell counting analysis; details: at 10 µM
[29] = tested on: SK-MEL-2; assay: Growth inhibition of human SK-MEL-2 cells after 48 hrs by cell counting analysis; details: at 10 µM
[30] = tested on: SK-MEL-28; assay: Growth inhibition of human SK-MEL-28 cells after 48 hrs by cell counting analysis; details: at 10 µM
[31] = tested on: SK-MEL-5; assay: Growth inhibition of human SK-MEL-5 cells after 48 hrs by cell counting analysis; details: at 10 µM
[32] = tested on: UACC-257; assay: Growth inhibition of human UACC257 cells after 48 hrs by cell counting analysis; details: at 10 µM
[33] = tested on: UACC-62; assay: Growth inhibition of human UACC62 cells after 48 hrs by cell counting analysis; details: at 10 µM
[34] = tested on: IGROV-1; assay: Growth inhibition of human IGROV1 cells after 48 hrs by cell counting analysis; details: at 10 µM
[35] = tested on: OVCAR-3; assay: Growth inhibition of human OVCAR3 cells after 48 hrs by cell counting analysis; details: at 10 µM
[36] = tested on: OVCAR-4; assay: Growth inhibition of human OVCAR4 cells after 48 hrs by cell counting analysis; details: at 10 µM
[37] = tested on: OVCAR-5; assay: Growth inhibition of human OVCAR5 cells after 48 hrs by cell counting analysis; details: at 10 µM
[38] = tested on: OVCAR-8; assay: Growth inhibition of human OVCAR8 cells after 48 hrs by cell counting analysis; details: at 10 µM
[39] = Growth inhibition of human NCI-ADR-RES cells after 48 hrs by cell counting analysis; details: at 10 µM
[40] = tested on: SK-OV-3; assay: Growth inhibition of human SKOV3 cells after 48 hrs by cell counting analysis; details: at 10 µM
[41] = tested on: ACHN; assay: Growth inhibition of human ACHN cells after 48 hrs by cell counting analysis; details: at 10 µM
[42] = tested on: CAKI-1; assay: Growth inhibition of human Caki1 cells after 48 hrs by cell counting analysis; details: at 10 µM
[43] = tested on: RXF 393; assay: Growth inhibition of human RXF393 cells after 48 hrs by cell counting analysis
[44] = tested on: SN12C; assay: Growth inhibition of human SN12C cells after 48 hrs by cell counting analysis; details: at 10 µM
[45] = tested on: TK-10; assay: Growth inhibition of human TK10 cells after 48 hrs by cell counting analysis; details: at 10 µM
[46] = tested on: UO-31; assay: Growth inhibition of human UO31 cells after 48 hrs by cell counting analysis; details: at 10 µM
[47] = tested on: PC-3; assay: Growth inhibition of human PC3 cells after 48 hrs by cell counting analysis; details: at 10 µM
[48] = tested on: MCF7; assay: Growth inhibition of human MCF7 cells after 48 hrs by cell counting analysis; details: at 10 µM
[49] = tested on: MDA-MB-231; assay: Growth inhibition of human MDA-MB-231 cells after 48 hrs by cell counting analysis; details: at 10 µM
[50] = tested on: BT-549; assay: Growth inhibition of human BT549 cells after 48 hrs by cell counting analysis; details: at 10 µM
[51] = tested on: T47D; assay: Growth inhibition of human T47D cells after 48 hrs by cell counting analysis; details: at 10 µM
[52] = tested on: MDA-MB-468; assay: Growth inhibition of human MDA-MB-468 cells after 48 hrs by cell counting analysis
[53] = Antiproliferative activity against human leukemia cells after 48 hrs by cell counting analysis
[54] = Antiproliferative activity against human non-small cell lung cancer cells after 48 hrs by cell counting analysis; details: Cancer cell lines
[55] = Antiproliferative activity against human colon cancer cells after 48 hrs by cell counting analysis; details: Cancer cell lines
[56] = Antiproliferative activity against human CNS cancer cells after 48 hrs by cell counting analysis; details: Cancer cell lines
[57] = Antiproliferative activity against human melanoma cells after 48 hrs by cell counting analysis
[58] = Antiproliferative activity against human ovarian cancer cells after 48 hrs by cell counting analysis; details: Cancer cell lines
[59] = Antiproliferative activity against human renal cancer cells after 48 hrs by cell counting analysis; details: Cancer cell lines
[60] = Antiproliferative activity against human prostate cancer cells after 48 hrs by cell counting analysis; details: Cancer cell lines
[61] = Antiproliferative activity against human breast cancer cells after 48 hrs by cell counting analysis; details: Cancer cell lines
[62] = tested on: MOLT-4; assay: Growth inhibition of human MOLT4 cells after 48 hrs by cell counting analysis; details: at 10 µM
[63] = tested on: HCT-116; assay: Growth inhibition of human HCT116 cells after 48 hrs by cell counting analysis; details: at 10 µM
[64] = read-out: LC50 (the source's name)

## O=C(CCCl)Nc1nc(-c2ccc(Cl)cc2)cs1
[1]
  growth inhibition (GI): 88.3%
[2]
  growth inhibition (GI): 28.5%
[3]
  growth inhibition (GI): 63%
[4]
  growth inhibition (GI): 92.8%
[5]
  growth inhibition (GI): 77.7%
[6]
  growth inhibition (GI): 39.9%
[7]
  growth inhibition (GI): 29.6%
[8]
  growth inhibition (GI): 49%
[9]
  growth inhibition (GI): Active
[10]
  growth inhibition (GI): 51%
[11]
  growth inhibition (GI): 29%
[12]
  growth inhibition (GI): 16.9%
[13]
  growth inhibition (GI): 95.6%
[14]
  growth inhibition (GI): 15.8%
[15]
  growth inhibition (GI): 61.4%
[16]
  growth inhibition (GI): 78%
[17]
  growth inhibition (GI): 43.8%
[18]
  growth inhibition (GI): 76%
[19]
  growth inhibition (GI): 51.7%
[20]
  growth inhibition (GI): 29.8%
[21]
  growth inhibition (GI): 94.6%
[22]
  growth inhibition (GI): 26.2%
[23]
  growth inhibition (GI): 58.8%
[24]
  growth inhibition (GI): 55.4%
[25]
  growth inhibition (GI): 43.1%
[26]
  growth inhibition (GI): 44%
[27]
  growth inhibition (GI): 44.7%
[28]
  growth inhibition (GI): 68.1%
[29]
  growth inhibition (GI): 72.7%
[30]
  growth inhibition (GI): 21.2%
[31]
  growth inhibition (GI): 46.8%
[32]
  growth inhibition (GI): 43%
[33]
  growth inhibition (GI): 38.7%
[34]
  growth inhibition (GI): 48.9%
[35]
  growth inhibition (GI): 89.8%
[36]
  growth inhibition (GI): 16.4%
[37]
  growth inhibition (GI): 35.7%
[38]
  growth inhibition (GI): 52.8%
[39]
  growth inhibition (GI): 51.2%
[40]
  growth inhibition (GI): 25.7%
[41]
  growth inhibition (GI): 39.2%
[42]
  growth inhibition (GI): 52.5%
[43]
  growth inhibition (GI): Active
[44]
  growth inhibition (GI): 48.3%
[45]
  growth inhibition (GI): <10%
[46]
  growth inhibition (GI): 70.1%
[47]
  growth inhibition (GI): 59.7%
[48]
  growth inhibition (GI): 55.8%
[49]
  growth inhibition (GI): 44.6%
[50]
  growth inhibition (GI): 89.9%
[51]
  growth inhibition (GI): 52.1%
[52]
  growth inhibition (GI): Active
[53]
  GI50: 2200 nM
  TGI: 8.9 µM
[53]; [64]
  CC50: 90.2 µM
[54]
  GI50: 6.1 µM
  TGI: 19 µM
[54]; [64]
  CC50: 51.5 µM
[55]
  GI50: 3.9 µM
  TGI: 13.5 µM
[55]; [64]
  CC50: 44 µM
[56]
  GI50: 3.1 µM
  TGI: 14.7 µM
[56]; [64]
  CC50: 50.9 µM
[57]
  GI50: 3.2 µM
  TGI: 13.1 µM
[57]; [64]
  CC50: 47.6 µM
[58]
  GI50: 4.1 µM
  TGI: 21.8 µM
[58]; [64]
  CC50: 67 µM
[59]
  GI50: 1700 nM
  TGI: 7.9 µM
[59]; [64]
  CC50: 32.1 µM
[60]
  GI50: 2800 nM
  TGI: 13.8 µM
[60]; [64]
  CC50: 42.2 µM
[61]
  GI50: 2400 nM
  TGI: 8.8 µM
[61]; [64]
  CC50: 55.9 µM
[62]
  growth inhibition (GI): 61.3%
[63]
  growth inhibition (GI): 79.3%
